What is called IC50 is the midpoint of a concentration-inhibition curve.

IC50 data for nine molecules are collected here from ChEMBL document CHEMBL1128071, “Rational design, synthesis, and X-ray structure of renin inhibitors with extended P1 sidechains” (Bioorg Med Chem Lett, 1995).

The test concerns the target T1, Renin (Homo sapiens, UniProt P00797).
T1 sequence (P00797 whole entry): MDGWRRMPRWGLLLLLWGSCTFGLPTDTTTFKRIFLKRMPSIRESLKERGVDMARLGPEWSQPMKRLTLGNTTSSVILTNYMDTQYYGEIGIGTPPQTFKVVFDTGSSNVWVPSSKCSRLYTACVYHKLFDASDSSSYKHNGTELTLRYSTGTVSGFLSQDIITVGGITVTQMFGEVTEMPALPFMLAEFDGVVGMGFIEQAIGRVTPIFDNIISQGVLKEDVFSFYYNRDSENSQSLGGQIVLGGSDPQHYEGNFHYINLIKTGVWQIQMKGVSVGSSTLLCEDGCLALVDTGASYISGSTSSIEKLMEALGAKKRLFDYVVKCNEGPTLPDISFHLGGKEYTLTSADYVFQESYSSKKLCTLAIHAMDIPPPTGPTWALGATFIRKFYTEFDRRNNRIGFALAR
Nature of the test: Inhibition against recombinant human renin (rHR).
As to `CSC[C@H](NC(=O)CNC(=O)N1CCC(=O)CC1)C(=O)N[C@@H](Cc1ccc(Oc2ccccc2)cc1)[C@@H](O)[C@@H](O)CC(C)C`, the half-inhibitory concentration (IC50) turned out to be 0.066 µM. Regarding `CSC[C@H](NC(=O)CNC(=O)N1CCC(=O)CC1)C(=O)N[C@@H](Cc1ccccc1)[C@@H](O)[C@@H](O)CC(C)C`, the IC50 came out at 16 µM.

For `CSC[C@H](NC(=O)CNC(=O)N1CCC(=O)CC1)C(=O)N[C@@H](Cc1cccc(-c2ccccc2)c1)[C@@H](O)[C@@H](O)CC(C)C`, the 50% inhibitory concentration (IC50) came out at 0.11 µM. `CSC[C@H](NC(C)=O)C(=O)N[C@@H](Cc1ccc(-c2ccccc2)cc1)[C@@H](O)[C@@H](O)CC(C)C`: the IC50 was 1.1 µM.

Take `CSC[C@H](NC(C)=O)C(=O)N[C@@H](CC1CCCCC1)[C@@H](O)[C@@H](O)CC(C)C`: the concentration for half-maximal inhibition (IC50) came out at 5.1 µM. For `CSC[C@H](NC(=O)CNC(=O)N1CCC(=O)CC1)C(=O)N[C@@H](Cc1ccc(-c2ccccc2)cc1)[C@@H](O)[C@@H](O)CC(C)C` the value was 0.13 µM; for `CSC[C@H](NC(=O)[C@H](Cc1ccccc1)NC(=O)N1CCC(=O)CC1)C(=O)N[C@@H](CC1CCCCC1)[C@@H](O)[C@@H](O)CC(C)C`, 0.0003 µM.

Consider `CSC[C@H](NC(=O)CNC(=O)N1CCC(=O)CC1)C(=O)N[C@@H](CC1CCCCC1)[C@@H](O)[C@@H](O)CC(C)C`, for which the 50% inhibitory concentration (IC50) stood at 1.2 µM. On to `CSC[C@H](NC(C)=O)C(=O)N[C@@H](Cc1cccc(-c2ccccc2)c1)[C@@H](O)[C@@H](O)CC(C)C`, for which the 50% inhibitory concentration (IC50) was found to be 1.6 µM.
